Literature values in patent US12721834B2, “Combination treatment for Netherton syndrome” (Quoin Pharmaceuticals Inc., priority 2023, dated 2026).

Settings: in vivo

Substance	dermal toxicity
Poly(vinylpyrrolidone/1-eicosene) [PVPE]	no demonstrable dermal toxicity
Poly(vinylpyrrolidone/1-hexadecene) [PVPH]	no demonstrable dermal toxicity
